Experimental data published in PMC3705364, “Biochemical and Electrophysiological Characterization of Two Sea Anemone Type 1 Potassium Toxins from a Geographically Distant Population of Bunodosoma caissarum” (Marine Drugs, 2013).
Entries after “also recorded” stand apart in the source; their conditions may differ. Where a SMILES comes first, the peptide text is derived from it. Bridges are numbered along the chain shown (N, C = ends).

Biological target: T1, Shaker IR (Drosophila melanogaster, UniProt P08510, DEL6-46)
T1 construct: expressed in transfected cells; host or cells: Xenopus laevis oocytes injected with cRNA
T1 sequence (P08510 with tags, fused parts or gaps DEL6-46): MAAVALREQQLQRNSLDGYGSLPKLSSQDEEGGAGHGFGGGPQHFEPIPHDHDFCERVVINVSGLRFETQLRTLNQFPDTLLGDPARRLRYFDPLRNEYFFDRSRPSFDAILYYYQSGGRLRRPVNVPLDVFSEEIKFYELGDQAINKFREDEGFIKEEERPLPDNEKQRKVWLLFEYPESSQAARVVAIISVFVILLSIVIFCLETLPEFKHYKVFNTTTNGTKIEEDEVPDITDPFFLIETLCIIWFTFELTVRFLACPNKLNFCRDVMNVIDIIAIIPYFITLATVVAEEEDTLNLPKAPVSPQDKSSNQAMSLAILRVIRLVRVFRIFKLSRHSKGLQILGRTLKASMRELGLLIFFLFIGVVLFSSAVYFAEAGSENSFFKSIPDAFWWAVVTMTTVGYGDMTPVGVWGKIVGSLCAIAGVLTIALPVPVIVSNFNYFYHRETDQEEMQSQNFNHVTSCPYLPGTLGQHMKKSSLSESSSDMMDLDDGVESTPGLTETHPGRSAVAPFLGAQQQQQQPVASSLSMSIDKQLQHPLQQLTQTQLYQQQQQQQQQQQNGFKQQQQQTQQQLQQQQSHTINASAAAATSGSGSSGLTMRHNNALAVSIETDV
Test: Current-voltage (I-V) experiments, voltage dependence and reversibility on Shaker IR
Assay type: cell-based, insect
Procedure: In order to elucidate whether BcsTx-1 and -2 block the current through a physical obstruction of the Shaker IR channel pore or act as gating modifiers, current-voltage (I-V) experiments were performed. The currents were inhibited at the test potentials from −90 to 100 mV, and the inhibition was not associated with a change of the shape of the I-V relationship. The control curve and the curve in the presence of BcsTx1 (500 nM) were characterized by a V1/2 values of 20.85 ± 0.69 mV and 22.62 ± 0.73 mV, respectively. Moreover, the control curve and the curve in the presence of BcsTx2 (50 nM) were characterized by a V1/2 values of 18.49 ± 1.49 mV and 23.88 ± 1.57 mV, respectively. […] To date, type 1 sea anemone toxins have been described to act solely through a KV channel pore-blocking mechanism.
Figure 8 Functional features of BcsTx1 and BcsTx2 on KV channels. (A, B) Dose-response curves of BcsTx1 and BcsTx2 on rKV1.1, rKV1.2, hKV1.3, rKV1.6 and Shaker IR channels. The curves were obtained by plotting the percentage blocked current as a function of increasing toxin concentrations. All data are presented as the mean ± standard error (n ≥ 3). (C, D) Current-voltage relationship for Shaker IR isoform in control condition and in the presence of BcsTx1 (500 nM) and BcsTx2 (50 nM). Current traces were evoked by 10 mV depolarization steps from a holding potential of −90 mV. Open circles indicates the V1/2 in control; closed circles indicate the addition of toxins. (E, F) Percentage of currents left after application of BcsTx1 (500 nM) and BcsTx2 (50 nM) on Shaker IR channel. […] (G, H) Representative experiment of the time course of Shaker IR current inhibition with BcsTx1 (500 nM) and BcsTx2 (3000 nM) and the reversibility hereof. Control (open square); washout (open circles). […] Plots shown are a representative of at least three individual experiments.
Stage V–VI of X. laevis oocytes were harvested by partial ovariectomy under anesthesia (3-aminobenzoic acid ethyl ester methanesulfonate salt, 0.5 g/L from Sigma-Aldrich Co., Saint Louis, MO, USA). The oocytes were defolliculated for 2 h by treatment with 2 mg/mL collagenase (Sigma-Aldrich Co., Saint Louis, MO, USA) in Ca^2+ free ND96 solution (in mM: 96 NaCl; 2 KCl; 1 MgCl2; 5 HEPES adjusted pH 7.4). […]
Two-electrode voltage-clamp recordings were performed at room temperature (18–22 °C) using a Geneclamp 500 amplifier (Molecular Devices, Sunnyvale, CA, USA) controlled by a pClamp data acquisition system (Axon Instruments, Union City, CA, USA). Whole-cell currents from oocytes were recorded from 1 to 3 days after injection. […]

CC(C)C[C@@H]1NC(=O)[C@H](CCCCN)NC(=O)[C@H](C)NC(=O)[C@H](Cc2c[nH]cn2)NC(=O)[C@H](CCC(N)=O)NC(=O)[C@@H]2CSSC[C@@H]3NC(=O)[C@H](CC(N)=O)NC(=O)[C@H](C)NC(=O)[C@H](CCCNC(=N)N)NC(=O)[C@H](Cc4ccc(O)cc4)NC(=O)[C@H](CCCCN)NC(=O)[C@H](CCC(N)=O)NC(=O)[C@H](CO)NC(=O)[C@H](CC(N)=O)NC(=O)[C@H](CCCCN)NC(=O)[C@H](CSSC[C@H](NC(=O)[C@H]([C@@H](C)O)NC(=O)[C@H](CCCCN)NC(=O)[C@H](C)NC3=O)C(=O)NCC(=O)N3CCC[C@H]3C(=O)N[C@H](C(=O)O)CSSC[C@H](NC(=O)[C@H](C)N)C(=O)N[C@@H](CCCCN)C(=O)N[C@@H](CC(=O)O)C(=O)NCC(=O)N[C@@H](Cc3ccccc3)C(=O)N3CCC[C@H]3C(=O)N[C@@H]([C@@H](C)O)C(=O)N[C@@H](C)C(=O)N[C@@H]([C@@H](C)O)C(=O)N2)NC(=O)[C@H](CC(N)=O)NC(=O)CNC(=O)[C@H](C(C)C)NC1=O [BcsTx2] (H-ACKDGFPTATCQHAKLVGNCKNSQKYRANCAKTCGPC-OH; disulfide 2-37, 11-30, 20-34; C-terminus assumed)
reversibility of blockage upon washout (in words) (Shaker IR, BcsTx1 500 nM, BcsTx2 3000 nM, washout): reversible, and a complete recovery was observed after washout; also recorded: binding was reversible upon washout
onset of blockage (in words) (Shaker IR, time course, BcsTx1 500 nM, BcsTx2 3000 nM): Blockage occurred rapidly
voltage dependence of blockage (in words) (Shaker IR, −10 mV to 50 mV, BcsTx1 500 nM, BcsTx2 50 nM): non-dependence of voltage for the blockage; also recorded: no difference was observed in the degree of BcsTx1- and BcsTx2-induced blockage
V1/2 of activation, Shaker IR (in presence of 50 nM toxin, control 18.49 ± 1.49 mV, Boltzmann fit): 23.88 ± 1.57 mV
